Common to all, as to test: growth of human tumour cells (NCI), 48 h
Assay [1] deals with OVCAR-5.
In assay [2] the test system is K562.
For assay [3], the system named is PC-3.
Assay [4] deals with RPMI-8226.
Assay [5] relates to MDA-MB-435.
Assay [6] relates to SF-268.
Assay [7] relates to SK-MEL-5.
Assay [8] has as its system MOLT-4.
For assay [9], the system named is HOP-62.
In assay [10] the test system is BT-549.
In assay [11] the test system is ACHN.
The test system of assay [12] is LOX IMVI.
Assay [13] relates to A498.
For assay [14], the system named is 786-0.
The subject of assay [15] is HT-29.
For assay [16], the system named is SK-MEL-28.
For assay [17], the system named is SF-295.
In assay [18] the test system is TK-10.
In assay [19] the test system is Malme-3M.
Assay [20] has as its system T47D.

The results in this text go back to ChEMBL document CHEMBL1201862, “PubChem BioAssay data set” (2004).

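In this assay, cells in 96-well plates receive the compound at five concentrations for 48 hours. Endpoints are linearly interpolated between the surrounding concentrations. At the GI50, growth is halved.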 Activity calls are given as the source filed them. Cut-off read from the data, not from the text of the source: active = GI50 up to about 1.1 µM and inactive = higher.

As to `CC(=O)ON(C(C)=O)c1ccc(-c2nc3ccccc3s2)cc1C`, the GI50 in [1] was 4.28 µM (inactive); in assay [2], 45.2 µM (inactive); in assay [3] it was 30.5 µM (inactive); in assay [4], 48.2 µM (inactive); in assay [5] it was 60.3 µM (inactive); in assay [6], 52.1 µM (inactive). Besides, the GI50 in [7] is 21.5 µM (inactive); in assay [8], 66.7 µM (inactive); in [9] it was 21.2 µM (inactive); in assay [10] it was 70.5 µM (inactive); in assay [11], 32.6 µM (inactive); in assay [12], 37.4 µM (inactive). The GI50 was 5.11 µM (inactive) in assay [13]; 60 µM (inactive) in assay [14]; 32 µM (inactive) in [15]; 76.4 µM (inactive) in assay [16]; 31.6 µM (inactive) in [17]; 2.96 µM (inactive) in assay [18]. In assay [19], the GI50 is > 100 µM (inactive).
Turning to `CC1=CC(C)(C)Nc2ccc(CSc3ccccc3)cc21`, the GI50 in [1] was 14.9 µM (inactive); in assay [2], 18 µM (inactive); in assay [3], 28.9 µM (inactive); in assay [4] it was 14.9 µM (inactive); in [5], 25.3 µM (inactive); in assay [6] it was 35.3 µM (inactive). Besides, the GI50 in assay [7] is 17.1 µM (inactive); in assay [9], 29.7 µM (inactive); in assay [10] it was 59.2 µM (inactive); in assay [11], 46.6 µM (inactive); in assay [12], 30.7 µM (inactive); in [13], 24.1 µM (inactive). For the same molecule, the GI50 in assay [14] is 23.2 µM (inactive); in [15] it was 16.1 µM (inactive); in assay [16] it was 37.8 µM (inactive); in assay [17], 20 µM (inactive); in [18], 39.5 µM (inactive); in [19] it was 17.9 µM (inactive).
Consider `O=C1CCC2(c3ccccc3)Nc3ccncc3N12` (configuration not stated), for which the GI50 in [1], in [2], in [3], in assay [5], in assay [6] and in assay [8] was > 10 µM (inactive) in each case. Moreover, the GI50 in assay [20], in [10], in assay [11], in [12], in [14] and in [15] was > 10 µM (inactive) each time. In addition, the GI50 in [17], in [18] and in assay [19] was > 10 µM (inactive) throughout.
With `CC(C)(C)NC(NC(C)(C)C)=C(C(Cl)=C(Cl)Cl)[N+](=O)[O-]`, the GI50 in assay [1], in assay [2], in assay [3], in assay [4], in [6] and in [7] was > 100 µM (inactive) in each case. Also, the GI50 in [8], in assay [20], in assay [9], in [10], in assay [11] and in [12] was > 100 µM (inactive) in each case. Further, the GI50 in assay [13], in [14], in [15], in assay [16], in assay [17] and in assay [18] was > 100 µM (inactive) each time. Besides, the GI50 in assay [19] is > 100 µM (inactive).
Take `COc1ccc2c(c1)N(C(C)=O)CN1C(=O)CCC21` (configuration not stated): the GI50 in assay [1] was > 100 µM (inactive); in assay [2] it was 79.6 µM (inactive); in assay [3], > 100 µM (inactive); in assay [4], 49.3 µM (inactive); in assay [5], > 100 µM (inactive); in assay [6], > 100 µM (inactive). For the same molecule, the GI50 in assay [7] was > 100 µM (inactive); in assay [8], 46 µM (inactive); in assay [20], > 100 µM (inactive); in assay [9], > 100 µM (inactive); in assay [11] it was > 100 µM (inactive); in [12] it was > 100 µM (inactive). Besides, the GI50 in [13], in assay [14], in [15], in assay [16], in assay [17] and in [18] was > 100 µM (inactive) throughout. In addition, in assay [19], the GI50 is > 100 µM (inactive).
For the molecule `OCc1ccc2c(c1)CC1(Cc3ccccc3C1)C2`, the GI50 in assay [2] was 7.11 µM (inactive); in assay [3], 10.8 µM (inactive); in assay [4] it was 15.8 µM (inactive); in [6], 18.1 µM (inactive); in assay [7] it was 11.5 µM (inactive); in [8], > 10 µM (inactive). Besides, the GI50 in [20] is 26.6 µM (inactive); in [9] it was 25.6 µM (inactive); in assay [10], 3.77 µM (inactive); in assay [11], 21 µM (inactive); in [12] it was 15.4 µM (inactive); in assay [13] it was 26.7 µM (inactive). The GI50 is 15.1 µM (inactive) in assay [14]; 16.8 µM (inactive) in assay [15]; 19.3 µM (inactive) in assay [16]; 18.1 µM (inactive) in assay [17]; 21.2 µM (inactive) in assay [18]; 13.6 µM (inactive) in assay [19].
As for `OCC1OC(n2nc(-c3ccccc3)nc2-c2cnccn2)C(O)C1O` (configuration not stated), the GI50 in assay [1], in assay [2], in assay [3], in [5], in assay [6] and in [7] was > 100 µM (inactive) in each case. Also, the GI50 in assay [8], in [20], in [9], in assay [10], in assay [12] and in assay [14] was > 100 µM (inactive) throughout. The GI50 in [15], in assay [16], in assay [17] and in [18] was > 100 µM (inactive) throughout.
In the case of `CCCCCCCCCCCCCCCC(=O)ON1C(=S)NC(C)(c2ccccc2)C1=S` (configuration not stated), the GI50 is > 100 µM (inactive) in assay [1]; 38.2 µM (inactive) in assay [2]; 62.2 µM (inactive) in assay [3]; > 100 µM (inactive) in [4]; 73.6 µM (inactive) in assay [6]; > 100 µM (inactive) in assay [7]. Besides, the GI50 in assay [8] was 33.5 µM (inactive); in assay [20], > 100 µM (inactive); in assay [9], > 100 µM (inactive); in [10], > 100 µM (inactive); in assay [11], > 100 µM (inactive); in assay [12], 45.2 µM (inactive). The GI50 was > 100 µM (inactive) in [13]; 60 µM (inactive) in assay [14]; 55.2 µM (inactive) in assay [15]; 2.11 µM (inactive) in [17]; > 100 µM (inactive) in assay [18]; > 100 µM (inactive) in [19].
Consider `CN1C(=O)C2CCC(=O)N2c2cccnc21` (configuration not stated), for which the GI50 in [2], in assay [4], in assay [5], in assay [6], in assay [7] and in assay [8] was > 100 µM (inactive) throughout. For the same molecule, the GI50 in assay [20], in assay [9], in assay [10], in [11], in assay [12] and in assay [14] was > 100 µM (inactive) throughout. Further, the GI50 in [15], in assay [16], in [17], in [18] and in [19] was > 100 µM (inactive) each time.
`COc1ccc(OC)c(CC(=O)c2ccc(O)c(C(=O)NCCc3ccc(F)cc3)c2)c1`: the GI50 in [1] was 7.36 µM (inactive); in assay [2] it was 3.81 µM (inactive); in assay [4], 4.1 µM (inactive); in [5], 0.615 µM (active); in [6], 4.13 µM (inactive); in [7] it was 1.73 µM (inactive). The GI50 is 5.04 µM (inactive) in assay [8]; 2.8 µM (inactive) in assay [20]; 1.54 µM (inactive) in [9]; 12 µM (inactive) in assay [10]; 10.5 µM (inactive) in [11]; 6.95 µM (inactive) in [12]. The GI50 was 12.2 µM (inactive) in [13]; 4.18 µM (inactive) in [14]; 9.86 µM (inactive) in [15]; 6.41 µM (inactive) in [16]; 2.82 µM (inactive) in assay [17]; 7.23 µM (inactive) in assay [18]. Besides, the GI50 in assay [19] is 2.2 µM (inactive).
For `COc1cc2c(cc1OC)C(OC)N(C)c1c-2ccc2cc3c(cc12)OCO3` (configuration not stated), the GI50 in assay [1] is 1.42 µM (inactive); in [2], 1.75 µM (inactive); in assay [3], 1.33 µM (inactive); in assay [4], 1.47 µM (inactive); in [5], 69 µM (inactive); in assay [6], 0.094 µM (active). Besides, the GI50 was 1.8 µM (inactive) in assay [7]; 0.611 µM (active) in [8]; 1.4 µM (inactive) in assay [9]; 3.06 µM (inactive) in assay [10]; 4.69 µM (inactive) in assay [11]; 5.36 µM (inactive) in [12]. The GI50 was 0.458 µM (active) in assay [13]; 1.86 µM (inactive) in assay [14]; 1.38 µM (inactive) in assay [15]; 4.28 µM (inactive) in assay [16]; 2.82 µM (inactive) in assay [17]; 6.75 µM (inactive) in assay [18]. Further, the GI50 in assay [19] is 3.51 µM (inactive).
